Test results reported in publication PMC10784249 (Natural Products and Bioprospecting, 2024).

Legend:
SH-SY5Y cells = experiment: Cell viability of SH-SY5Y cells by MTT (toxicity check); conditions: undifferentiated SH-SY5Y, 70 µM of OA, 24 h
[1] = PAMPA-BBB parallel artificial membrane permeability assay; assay type: in vitro ADME, porcine; conditions: pig, pH 7.4, PBS:EtOH (70:30) as solvent, mean ± SD of 2 independent experiments, 2 h 30 min at 25 °C, read-out: Pe
Procedure: Filter PDVF membrane units (diameter 30 mm, pore size 0.45 μm) from Symta were used to filter the samples. A 96-well plate UV reader (Thermoscientific, Multiskan spectrum) was used for the UV measurements. […] These solutions were filtered. […] Then the donor plate was carefully put on the acceptor plate to form a “sandwich”, which was left undisturbed for 2 h and 30 min at 25 °C. […] During this time the compounds diffused from the donor plate through the brain lipid membrane into the acceptor plate. After incubation, the donor plate was removed. UV plate reader determined the concentration of compounds and commercial drugs in the acceptor and the donor wells. […] 10 quality control compounds (previously mentioned) of known BBB permeability were included in each experiment to validate the analysis set.

SMILES: C=C1[C@@H](O)[C@@H]2O[C@]3(CC[C@H](/C=C/[C@@H](C)[C@@H]4CC(C)=C[C@@]5(O[C@H](C[C@@](C)(O)C(=O)O)CC[C@H]5O)O4)O3)CC[C@H]2O[C@@H]1[C@@H](O)C[C@H](C)[C@H]1O[C@@]2(CCCCO2)CC[C@H]1C [OA, okadaic acid]
- decrease of cell viability (SH-SY5Y cells): about 43%

SMILES: CN1C(C(=O)Nc2ccccn2)=C(O)c2ccccc2S1(=O)=O [Piroxicam]
- Papp at […] [1]: 0.6 ± 0.8 ×10⁻⁶ cm/s

SMILES: CN(C)CCCN1c2ccccc2Sc2ccccc21 [Promazine]
- Papp at […] [1]: 12 ± 0.9 ×10⁻⁶ cm/s
